Experimental data reported in ChEMBL document CHEMBL4152218, “Novel hydrazide-hydrazone and amide substituted coumarin derivatives: Synthesis, cytotoxicity screening, microarray, radiolabeling and in vivo pharmacokinetic studies” (Eur J Med Chem, 2018).
pIC50: −log10 of the molar value. Activity calls are given as the source filed them. No cut-off for these calls is given here.

How the values were obtained:
TERT-RPE1 [1] = assay: Cytotoxicity against hTERT-RPE1 cells at 6.25 uM after 48 hrs by resazurin dye-based fluorescence assay relative to control; assay type: cell-based; settings: human, tert-rpe1, 48 h
PANC-1 [2] = assay: Effect on ZNF43 gene expression in human PANC1 cells at IC50 after 48 hrs by microarray analysis; assay type: functional, cell-based
HepG2 [3] = assay: Effect on TNFRSF 19 gene expression in human HepG2 cells at IC50 after 48 hrs by microarray analysis; assay type: functional, cell-based
PANC-1 [4] = assay: Effect on MATK gene expression in human PANC1 cells at IC50 after 48 hrs by microarray analysis; assay type: functional, cell-based
HepG2 [5] = assay: Effect on CASP7 gene expression in human HepG2 cells at IC50 by SYBR green-dye based qRT-PCR analysis relative to beta-actin; assay type: functional
HepG2 [6] = assay: Effect on GOLPH4 gene expression in human HepG2 cells at IC50 after 48 hrs by microarray analysis; assay type: functional, cell-based
HepG2 [7] = assay: Effect on TMEM132D gene expression in human HepG2 cells at IC50 after 48 hrs by microarray analysis; assay type: functional, cell-based
HepG2 [8] = assay: Effect on WDR26 gene expression in human HepG2 cells at IC50 after 48 hrs by microarray analysis; assay type: functional, cell-based
PANC-1 [9] = assay: Antiproliferative activity against human PANC1 cells after 48 hrs by resazurin dye-based fluorescence assay; assay type: functional, cell-based; settings: PANC-1, 48 h
HepG2 [10] = assay: Effect on DIDO1 gene expression in human HepG2 cells at IC50 after 48 hrs by microarray analysis; assay type: functional, cell-based
PANC-1 [11] = assay: Effect on LOC407835 gene expression in human PANC1 cells at IC50 after 48 hrs by microarray analysis; assay type: functional, cell-based
PANC-1 [12] = assay: Effect on JMJD2B gene expression in human PANC1 cells at IC50 after 48 hrs by microarray analysis; assay type: functional, cell-based
HepG2 [13] = assay: Effect on SRXN1 gene expression in human HepG2 cells at IC50 after 48 hrs by microarray analysis; assay type: functional, cell-based
HepG2 [14] = assay: Effect on MYO 10 gene expression in human HepG2 cells at IC50 after 48 hrs by microarray analysis; assay type: functional, cell-based
HepG2 [15] = assay: Effect on GDF15 gene expression in human HepG2 cells at IC50 after 48 hrs by microarray analysis relative to control; assay type: functional
PANC-1 [16] = assay: Effect on CASP1 gene expression in human PANC1 cells at IC50 after 48 hrs by microarray analysis; assay type: functional, cell-based
PANC-1 [17] = assay: Effect on RBM39 gene expression in human PANC1 cells at IC50 after 48 hrs by microarray analysis; assay type: functional, cell-based
HepG2 [18] = assay: Antiproliferative activity against human HepG2 cells after 48 hrs by resazurin dye-based fluorescence assay; assay type: functional, cell-based; settings: HepG2, 48 h
PANC-1 [19] = assay: Effect on TOP3A gene expression in human PANC1 cells at IC50 after 48 hrs by microarray analysis; assay type: functional, cell-based
PANC-1 [20] = assay: Effect on TBC1D26 gene expression in human PANC1 cells at IC50 after 48 hrs by microarray analysis; assay type: functional, cell-based
HepG2 [21] = assay: Effect on SYT2 gene expression in human HepG2 cells at IC50 after 48 hrs by microarray analysis; assay type: functional, cell-based
HepG2 [22] = assay: Effect on PRPF4B gene expression in human HepG2 cells at IC50 after 48 hrs by microarray analysis; assay type: functional, cell-based
PANC-1 [23] = assay: Effect on YY1 gene expression in human PANC1 cells at IC50 after 48 hrs by microarray analysis; assay type: functional, cell-based
HepG2 [24] = assay: Induction of apoptosis in human HepG2 cells assessed as increase in caspase-3/7 activity after 24 hrs by Caspase-Glo 3/7 luminescence assay; assay type: functional, cell-based
HepG2 [25] = assay: Effect on NAV 2 gene expression in human HepG2 cells at IC50 after 48 hrs by microarray analysis; assay type: functional, cell-based
PANC-1 [26] = assay: Effect on CASP7 gene expression in human PANC1 cells at IC50 after 48 hrs by microarray analysis; assay type: functional, cell-based
PANC-1 [27] = assay: Effect on NUCKS1 gene expression in human PANC1 cells at IC50 after 48 hrs by microarray analysis; assay type: functional, cell-based
CCRF-CEM = assay: Antiproliferative activity against human CCRF-CEM cells after 48 hrs by resazurin dye-based fluorescence assay; assay type: functional, cell-based
PANC-1 [28] = assay: Effect on PVRL3 gene expression in human PANC1 cells at IC50 after 48 hrs by microarray analysis; assay type: functional, cell-based
PANC-1 [29] = assay: Effect on RNF151 gene expression in human PANC1 cells at IC50 after 48 hrs by microarray analysis; assay type: functional, cell-based
hTERT-BJ [30] = assay: Cytotoxicity against hTERT-BJ cells after 48 hrs by resazurin dye-based fluorescence assay; assay type: cell-based; settings: Homo sapiens
[31] = Selectivity index, ratio of IC50 for hTERT-BJ cells to IC50 for human PANC1 cells; assay type: toxicity; settings: hTERT-BJ cells versus PANC1 cells, read-out: Ratio IC50
HepG2 [32] = assay: Effect on PCDH21 gene expression in human HepG2 cells at IC50 after 48 hrs by microarray analysis; assay type: functional, cell-based
PANC-1 [33] = assay: Effect on LIMK1 gene expression in human PANC1 cells at IC50 after 48 hrs by microarray analysis; assay type: functional, cell-based
PANC-1 [34] = assay: Effect on NBPF20 gene expression in human PANC1 cells at IC50 after 48 hrs by microarray analysis; assay type: functional, cell-based
HepG2 [35] = assay: Effect on CYP3A4 gene expression in human HepG2 cells at IC50 after 48 hrs by microarray analysis; assay type: ADME, cell-based; settings: hepg2, 48 h
PANC-1 [36] = assay: Effect on GLULP2 gene expression in human PANC1 cells at IC50 after 48 hrs by microarray analysis; assay type: functional, cell-based
HepG2 [37] = assay: Effect on GST A1 gene expression in human HepG2 cells at IC50 after 48 hrs by microarray analysis; assay type: functional, cell-based
HepG2 [38] = assay: Effect on PYCR1 gene expression in human HepG2 cells at IC50 after 48 hrs by microarray analysis; assay type: functional, cell-based
[39] = Selectivity index, ratio of IC50 for hTERT-BJ cells to IC50 for human HepG2 cells; assay type: toxicity; settings: hTERT-BJ cells versus HepG2 cells, read-out: Ratio IC50
HepG2 [40] = assay: Effect on CASP7 gene expression in human HepG2 cells at IC50 after 48 hrs by microarray analysis; assay type: functional, cell-based
HepG2 [41] = assay: Effect on OR5P2 gene expression in human HepG2 cells at IC50 after 48 hrs by microarray analysis; assay type: functional, cell-based
HepG2 [42] = assay: Effect on GADD45A gene expression in human HepG2 cells at IC50 after 48 hrs by microarray analysis; assay type: functional, cell-based
HepG2 [43] = assay: Effect on GST A2 gene expression in human HepG2 cells at IC50 after 48 hrs by microarray analysis; assay type: functional, cell-based
[44] = Inhibition of GST (unknown origin) using CDNB as substrate by spectrophotometric analysis; settings: human
TERT-RPE1 [45] = assay: Cytotoxicity against hTERT-RPE1 cells at 25 uM after 48 hrs by resazurin dye-based fluorescence assay relative to control; assay type: cell-based; settings: human, tert-rpe1, 48 h
hTERT-BJ [46] = assay: Cytotoxicity against hTERT-BJ cells at 12.50 uM after 48 hrs by resazurin dye-based fluorescence assay relative to control; assay type: cell-based; settings: human, 12.5 µM
PANC-1 [47] = assay: Effect on PAH gene expression in human PANC1 cells at IC50 after 48 hrs by microarray analysis; assay type: functional, cell-based

Compound: O=C(N/N=C/c1cc2ccccc2nc1Cl)c1cc2cc(Br)ccc2oc1=O
- Activity (TERT-RPE1 [1]): 0.94%
- Activity (PANC-1 [2]): Active
- Activity (HepG2 [3]): Active
- Activity (PANC-1 [4]): Active
- fold change (FC) (HepG2 [5]): 2.45
- Activity (HepG2 [6]): Active
- Activity (HepG2 [7]): Active
- Activity (HepG2 [8]): Active
- pIC50 (PANC-1 [9]): 5.26
- Activity (HepG2 [10]): Active
- Activity (PANC-1 [11]): Active
- Activity (PANC-1 [12]): Active
- Activity (HepG2 [13]): Active
- Activity (HepG2 [14]): Active
- fold change (FC) (HepG2 [15]): 4.56
- Activity (PANC-1 [16]): Active
- Activity (PANC-1 [17]): Active
- pIC50 (HepG2 [18]): 5.03
- Activity (PANC-1 [19]): Active
- Activity (PANC-1 [20]): Active
- Activity (HepG2 [21]): Active
- Activity (HepG2 [22]): Active
- Activity (PANC-1 [23]): Active
- Activity (HepG2 [24]): Dose-dependent effect
- Activity (HepG2 [25]): Active
- Activity (PANC-1 [26]): Active
- Activity (PANC-1 [27]): Active
- pIC50 (CCRF-CEM): 5.13
- Activity (PANC-1 [28]): Active
- Activity (PANC-1 [29]): Active
- pIC50 (hTERT-BJ [30]): < 4.30
- selectivity ratio [31]: > 9.18
- Activity (HepG2 [32]): Active
- Activity (PANC-1 [33]): Active
- Activity (PANC-1 [34]): Active
- Activity (HepG2 [35]): Active
- Activity (PANC-1 [36]): Active
- Activity (HepG2 [37]): Active
- Activity (HepG2 [38]): Active
- selectivity ratio [39]: > 5.31
- Activity (HepG2 [40]): Active
- Activity (HepG2 [41]): Active
- Activity (HepG2 [42]): Active
- Activity (HepG2 [43]): Active
- inhibition (INH) [44]: Dose-dependent effect
- Activity (TERT-RPE1 [45]): 19.41%
- Activity (hTERT-BJ [46]): 3.63%
- Activity (PANC-1 [47]): Active
